Series [1] can be described thus: Dynamic light scattering (DLS) size of peptide nanoparticles. It counts as physicochemical. The conditions noted are these: empty peptide nanoparticles 0.5 mg/mL, Tables S1 and S2, mean ± SEM (n=3). The protocol:
(§1) The size of the peptide nanoparticles at concentrations of 0.5 mg/mL was analyzed by dynamic laser light scattering (DLS) with ELS-Z2 (Photal, Otsuka Electronics Co., Ltd., Otsuka, Japan) and a Nano-ZS (Malvern Instruments Ltd., London, UK). The ξ-potential of the peptide nanoparticles was measured using a Nano-ZS. To confirm their stability, the LL and DD nanoparticles were monitored using a DLS instrument every 5 days for 30 days. The morphology of the LL peptide nanoparticles was measured using a field emission scanning electron microscope (FE-SEM). Thereafter, the dried samples of peptide nanoparticles were coated with osmium and analyzed by FE-SEM (Hitachi, Tokyo, Japan) under a 5–10 kV acceleration voltage. The self-assembled structure of the peptide nanoparticles was analyzed using CD spectroscopy (J-1000, Jasco, Hachioji, Japan). The LL and DD peptide nanoparticle solutions were measured in a quartz cuvette at wavelengths of 190 to 260 nm.
(§2) Doxorubicin (Dox) was encapsulated in the RH-(GFLG)3 peptide nanoparticles to evaluate their potential as drug delivery carriers. […] The prepared Dox-loaded RH-(GFLG)3 nanoparticles (LL-Dox, LD-Dox, DL-Dox, and DD-Dox) were stored at 4 °C, and their size diameter and ξ-potential were measured using DLS and zeta instruments of Nano ZS90 (Malvern, Worcestershire, UK) to confirm the formulation of the nanostructure.

Series [2] can be described thus: Storage stability of nanoparticles monitored by DLS. It is filed as physicochemical. The conditions noted are these: DLS every 5 days for 30 days at 4 °C; mean ± SEM (n = 3). The procedure: as §1
Another series deals with human RBCs. Description: Hemolysis assay. It is filed as cell-based. The conditions noted are these: 0.1 and 0.2 μg/μL, 2 h at 37 °C, absorbance 450 nm, Triton X-100 0.2% as maximum. The protocol: The hemolysis of LL, LD, DL, and DD nanoparticles was investigated using human blood cells. PEI 25kD was introduced as a positive control. Briefly, fresh human blood was obtained from healthy volunteers. Coagulation of human blood was prevented using ethylenediaminetetraacetic acid (EDTA). The human blood was centrifuged at 5000 rpm for 5 min to separate the red blood cells (RBCs) from the serum. The isolated RBCs were washed twice using PBS and diluted to 2.0 × 10^8 cells/mL in PBS. To evaluate the hemolytic activity, Triton X-100 0.2% treated samples were used as the maximum hemolytic activity control. A 0.25 mL volume of the prepared RBCs was mixed with 0.25 mL of each sample (final concentration of 0.1 μg/μL and 0.2 μg/μL, respectively). The mixed samples were incubated for 2 h at 37 °C. After incubation, the samples were centrifuged at 5000 rpm for 5 min, and […] of the supernatant of each sample was collected. The supernatant was diluted 10-fold using PBS to a final volume of 100 μL. The prepared supernatant solution was added to a 96-well microplate and measured at 450 nm using a VERSAmax microplate reader (Molecular Devices, San Jose, CA, USA).

Series [3] has as its system HeLa cells. Description: LDH assay (membrane damage). The note with it: 24 h, 0.025–0.2 μg/μL, relative to 20% Tween-20 control. It is filed as cell-based. The procedure:
(§3) The cytotoxicity of the RH-(GFLG)3 nanoparticles was examined using WST-1, LDH, and hemolysis assays. For the WST-1 assay, the HeLa cells were seeded to 1.0 × 10^4 cells/well in a 96-well microplate and incubated for 24 h. PEI 25kD and LL, LD, DL, and DD were prepared at various concentrations (0.025 to 0.2 μg/μL). PEI 25kD, a cationic polymer, was introduced as a positive control. After 24 h of incubation, 10 µL WST-1 was added to each well and incubated for 2 h. WST-1 formazan was measured using a VERASmax microplate reader (Molecular Devices, LLC, Sunnyvale, CA, USA) at an absorbance of 450 nm. For the LDH assay, 20% Tween-20 treated cells were examined as maximum LDH activated control to calculate the LDH activity (%) of samples. After 24 h incubation, 10 μL of the supernatant of each sample was collected and added to a working reagent containing 0.2 mM NADH and 2.5 mM sodium pyruvate in a 96-well microplate and incubated for 45 min at 37 °C. Finally, the LDH activity was quantified by measuring the absorbance at 490 nm using a microplate reader.

For the next series, the system named is SW480 cells. The series is described as follows: Anticancer effect, MTT assay in SW480 cells. It is filed as cell-based. The note with it: SW480, 24, 48 and 72 h, peptide without Dox. The protocol:
(§4) The anticancer activity of Dox-loaded peptide nanoparticles in HeLa and SW480 cells was determined with an MTT assay. Cells were seeded to 1.0 × 10^4 cells/well in a 96-well microplate and incubated for 24 h. After incubation, the cells were treated using Free Dox and Dox-loaded RH-(GLFG)3 nanoparticles to a final concentration of 0.25–2 μM and incubated for 24–72 h. After incubation, the prepared samples were analyzed following the method described above. To understand the anticancer effect in tissue, 3D spheroids of HeLa cells were prepared as described above. The prepared 3D spheroids were treated with 1 μM Free Dox, DD-Dox, and LL-Dox and incubated for 1–7 days. The morphology of the 3D spheroids was observed using an objective microscope every day. After 7 days of incubation, the viability of the spheroids was analyzed using an MTT assay. The spheroids were added to the MTT solution (2 mg/mL in DPBS) and incubated for 4 h. The supernatant was removed, and 150 μL of DMSO was added to each sample. The prepared samples were measured using a micro reader (Molecular Devices, San Jose, CA, USA) at an absorbance of 570 nm.

The next series concerns the target T1, cathepsin B (Homo sapiens, UniProt P07858).
T1 construct: purchased Sigma-Aldrich (Seoul, Korea)
Description: Enzyme-responsiveness test with cathepsin B, MALDI-TOF MS. It is filed as in vitro ADME. The note with it: 0.02 μM cathepsin B in activation buffer, 37 °C, 6 h; versus control without enzyme. The procedure:
The enzyme-responsive ability of RH-(GFLG)3 was analyzed using matrix assisted laser mass spectroscopy (MALDI-TOF, Voyager TOF Mass Spectrometer, Applied Biosystems Inc., Carlsbad, CA, USA). The LL, LD, DL, and DD peptides were treated with 0.02 μM of the enzyme cathepsin B in an activation buffer at 37 °C for 6 h. To compare enzyme-responsive ability, control groups without enzyme were treated identically in an activation buffer at 37 °C for 6 h. The prepared peptides were measured using MALDI-TOF (Voyager TOF Mass Spectrometer) in a α-cyano-4-hydroxycinnamic acid (CHCA) matrix.

Series [4] relates to HeLa cells. The series is described as follows: Cellular uptake of Nile Red-tagged nanoparticles (confocal microscopy, FACS). It counts as cell-based. The note with it: Nile Red-tagged nanoparticles 0.2 mg/mL, 6 h confocal microscopy (16 h FACS). The protocol:
The cellular uptake ability of the peptide nanoparticle was analyzed using confocal microscopy (Zeiss International, Oberkochen, Germany) and fluorescence-activated cell sorting (FACS) (BD Biosciences, San Jose, CA). For confocal microscopy assays, 1.0 × 10^4 cells/well were seeded in an 8-well confocal plate and incubated for 24 h. Nile Red-tagged LL, DL, DL, and DD peptide nanoparticles were treated to a final concentration of 0.2 mg/mL, and the cells were incubated for 6 h. After incubation, the cell nuclei were stained with 20 μM Hoechst 33324 for 15 min. The prepared cells were observed using confocal microscopy. In the FACS assay, 1.0 × 10^6 cells/well were seeded in 6-well microplate and incubated for 24 h. After incubation, the Nile Red-tagged peptide nanoparticles were treated to a final concentration of 0.2 mg/mL, and cells were incubated for 16 h. After incubation, the cells were washed twice using DPBS and harvested using trypsin-EDTA. The cells were collected by centrifugation (1500 rpm, 3 min) and resuspended in 500 μL of DPBS. The prepared samples were transferred to a FACS tube and analyzed using FACS.

Series [5] can be described thus: ξ-potential of peptide nanoparticles (Nano-ZS). It is filed as physicochemical. The note with it: empty peptide nanoparticles; Tables S1 and S2; mean ± SEM (n=3); in mV (unit assumed). The procedure: as §1, §2
The nature of series [6]: Critical aggregation concentration with Nile Red probe. It counts as physicochemical. The procedure: The critical aggregation concentration (CAC) value of the RH-(GFLG)3 nanoparticles was analyzed using the hydrophobic probe Nile Red. Briefly, the peptide nanoparticles were prepared at various concentrations ranging from 0.001 to 0.3 mg/mL to make a final volume of 1 mL. Then, the prepared nanoparticle solutions were mixed with 5 μL of 40 μM Nile Red solution in ethanol to a final concentration of 0.2 μM. The samples were dried to remove the ethanol using nitrogen gas stream and incubated for 1 h at room temperature (25 °C). After incubation, prepared samples were measured using fluorescence spectroscopy (PerkinElmer, Waltham, MA, USA) at an excitation wavelength of 515 nm and emission wavelengths of 550–750 nm. The CAC of the peptide nanoparticles was analyzed by fluorescence intensity at 650 nm.

Series [7] concerns HeLa cells. Description: Anticancer effect, MTT assay in HeLa cells. It is filed as cell-based. The conditions noted are these: HeLa, 24, 48 and 72 h, peptide without Dox. The protocol:
as §4
In general terms: Tetrazolium assays rely on reduction of a dye to a coloured formazan, in cell work by metabolically active cells.

A short description of series [8]: FE-SEM morphology of peptide nanoparticles. It is filed as physicochemical. The conditions noted are these: dried samples, osmium coated, 5–10 kV. The protocol:
as §1

The test system of series [9] is HeLa cells. The series is described as follows: Cytotoxicity of peptide nanoparticles, WST-1 / MTT assay. It is filed as cell-based. The conditions noted are these: 24 h, highest concentration of 0.2 μg/μL, mean ± SEM (n = 3). The protocol:
as §3

Series [10] deals with SW480 cells in zebrafish larvae. The series is described as follows: In vivo anticancer capability in zebrafish cancer model. The note with it: micro-injection, observed 2 days after injection. The protocol: To examine the anticancer activity of the Dox-loaded RH-(GLFG)3 nanoparticles in vivo, we generated zebrafish cancer models using the SW480 cell line. Briefly, zebrafish eggs were incubated in a fish incubator for 2 days and dechorionated. The SW480 cells were stained using cell fluorescence tracker (cell tracker green CMFDA) for 30 min in a cell culture incubator. The labeled cells were then harvested using trypsin-EDTA and washed twice with PBS containing 10% FBS. The labeled cells were then injected into zebrafish larvae by micro-injection. The larvae were split in 96-well microplates containing TAP-water. After 2 days of incubation, Free Dox and Dox-loaded RH-(GLFG)3 nanoparticles (LL-Dox and DD-Dox) were injected into zebrafish larvae by micro-injection. After 2 days of incubation, the larvae were anesthetized using 0.04% tricaine and observed under a fluorescence microscope (Leica DMi8, Wetzlar, Germany).

In series [11] the test system is HeLa cells. The series is described as follows: Cellular uptake of Dox-loaded nanoparticles, confocal microscopy. It counts as cell-based. The note with it: 1 μM, 16 h (results text; method: 2 μM, 6 h). The procedure:
The cellular uptake of Dox-loaded RH-(GLFG)3 nanoparticles in HeLa cells was analyzed using confocal microscopy. HeLa cells were seeded to 1.0 × 10^4 cells/well in an 8-well confocal plate and incubated for 24 h. After incubation, the cells were treated using Free Dox, DD-Dox, and LL-Dox at a final concentration of 2 μM and incubated for 6 h. The nuclei of the cells were stained with 20 μM Hoechst 33324 for 15 min. The prepared cells were observed using confocal microscopy. To understand cellular uptake in tissue, we examined 3D spheroids of HeLa cells. For the formulation of the 3D spheroids, 1.0 × 10^4 cells were seeded in a round shaped 96-well plate coated with 1% agarose and incubated for 3 days. After incubation, the cells formed a globular shaped 3D tissue. The prepared 3D spheroids were treated using Free Dox, DD-Dox, and LL-Dox at a final concentration of 1 μM. The 3D spheroid medium was changed every 2 days for the tissue growth. After 7 days, the 3D spheroids were observed using confocal microscopy.

Turning to Arg-His-(Gly-Phe-Lue-Gly)3 [LL], in series [1], the Hydrodynamic diameter was 118 ± 7.7 nm and the “Polydispersity index (PDI)” value is reported as 0.245 ± 0.010. In series [2], the “nanoscale diameter during storage” value is “less than 200 nm”. The hemolysis result with human RBCs is “negligible hemolysis”. Besides, in the series with HeLa cells [3], the LDH release entry was “negligible LDH release”. Moreover, the “cytotoxicity of peptide control groups” value with SW480 cells is “negligible cytotoxicity”. For the same molecule, the “degradation by cathepsin B (peak at 1433 m/z in MALDI-TOF mass spectrum)” value on cathepsin B was “no peak at 1433 m/z”. Besides, in the series on HeLa cells [4], the cellular uptake ability entry is “higher uptake”. In series [5], this molecule came in with a Ξ-Potential of 30.1 ± 0.4. Moreover, the “critical aggregation concentration (CAC)” value in series [6] (Nile Red 0.2 μM, peptide 0.001–0.3 mg/mL, 1 h at 25 °C, fluorescence ex 515 nm, intensity at 650 nm) was “around 0.02 mg/mL”. Besides, the “CAC (printed in Figure 2E)” value in series [6] (Nile Red probe, fluorescence at 650 nm) turned out to be 0.02 µg/µL. In addition, the “cytotoxicity of peptide control groups” value with HeLa cells [7] is on record as “negligible cytotoxicity”. Further, the “size of globular nanostructure in FE-SEM images” value in series [8] is “smaller than 100 nm”. Also, the “cytotoxicity (cell viability)” value in the series with HeLa cells [9] is “negligible cytotoxicity”.

As for `COc1cccc2c1C(=O)c1c(O)c3c(c(O)c1C2=O)C[C@@](O)(C(=O)CO)C[C@@H]3O[C@H]1C[C@H](N)[C@H](O)[C@H](C)O1` [Free Dox, doxorubicin], the “anticancer effect on cell tracker labelled SW480 cells (fluorescence)” value in [10] is “low anticancer effect”. In the series with HeLa cells [11], the “cellular uptake ability of Dox” value is recorded as “low cellular uptake ability”.

Source of the values: article PMC8779831, “Enzyme-Responsive Amphiphilic Peptide Nanoparticles for Biocompatible and Efficient Drug Delivery” (Pharmaceutics, 2022).
